In US20250049773A1, “INHIBITION OF STEROL RESPONSE ELEMENT BINDING PROTEINS AS ATARGET FOR SELECTIVE ELIMINATION OF SENESCENT CELLS” (Trustees of Tufts College, priority 2021, published 2025):

Experiments:
IMR-90 fibroblasts = assay: Selective killing of senescent versus quiescent IMR-90 fibroblasts by SRE-BP activation inhibitors; format: cell-based; details: 30 μM
Protocol: FIGS. 1A and 1B. SRE-BP activation inhibitors selectively kill senescent cells. IMR-90 fibroblasts were induced to senesce with either 10 Gy of ionizing radiation (IR), 250 nM doxorubicin [SEN(DOXO)], or quiescent vehicle control (QUI) for 24 hours. Media was then replaced with drug-free growth media, and senescence was allowed to develop for 12 days. On day 12, growth media (10% serum) was replaced with quiescence media (0.2% serum+ITS supplement) for 48 hours to induce quiescence in non-senescent cells. On day 14, media was replaced with quiescence media containing increasing doses of fatostatin (A), xanthohumol (B), PF-429242 (C), or 30 micromolar betulin (D). DMSO served as a 0 micromolar vehicle control. \<0.001

[1] = tested on: senescent cells in the liver; assay: Markers of senescence and SASP factors in liver of high fat diet mice by qRT-PCR; format: in vivo
Protocol: FIGS. 2A, 2B, 2C, and 2D. […] Mice were fed a high fat diet (HFD) or high fat diet with 60 mg/kg xanthohumol (HFD+XN) for 12 weeks. RNA was extracted from mice and analyzed by quantitative PCR for (A) p21^WAF1, (B) p16^INK4a, (C) p15^INK4b, and (D) SASP factors.
Prolonged high fat diet (HFD) induces the generation of senescent cells in the liver. To test the hypothesis that inhibitors of SRE-BP activation are senolytic, two groups of mice were fed a HFD for 12 weeks. A control group was fed a HFD alone (FIG. 2, HFD), and an experimental group (FIG. 2, HFD+XN) was fed a HFD and the SRE-BP activation inhibitor xanthohumol (XN). RNA was isolated from liver samples from each group and subjected to quantitative reverse transcriptase polymerase chain reaction (qRT-PCR). […] Accordingly, the data presented in FIG. 2D supports the hypothesis that SRE-BP activation inhibitors, e.g., xanthohumol, are senolytic.

[2] = SASP factor, mice, HFD + 60 mg/kg xanthohumol for 12 weeks vs HFD alone, liver RNA, qRT-PCR
[3] = mice, HFD + 60 mg/kg xanthohumol for 12 weeks vs HFD alone, liver RNA, qRT-PCR

Row | Compound | toxicity to senescent cells versus quiescent cells (IMR-90 fibroblasts) | expression of 2′, 5′ oligoadenylate synthetase 2 (Oas2) [1, 2] | expression of C-C motif chemokine 2 (Ccl2) [1, 2] | expression of arachidonate 5-lipoxygenase (Alox5) [1, 2] | expression of growth differentiation factor 15 (Gdf15) [1, 2] | expression of interleukin 6 (IL-6) [1, 2] | expression of matrix metalloproteinase 3 (MMP3) [1, 2] | expression of plasminogen activator, urokinase (Plau) [1, 2] | expression of prostaglandin-endoperoxide synthase 2 (Ptgs2) [1, 2] | expression of serpin family E member 1 (Serpine1), encoding plasminogen activator inhibitor 1 (PAI-1) [1, 2] | expression of marker of senescence p15^INK4b [1, 3] | expression of marker of senescence p16^INK4a [1, 3] | expression of marker of senescence p21^WAF1 [1, 3] | several genes characteristic of SASP in mouse livers ([1]; summary statement, after administration of xanthohumol, qRT-PCR) | markers of senescence in vivo ([1]; summary statement, mice, HFD + 60 mg/kg xanthohumol for 12 weeks vs HFD)
1 | C=C(C)[C@@H]1CC[C@]2(CO)CC[C@]3(C)[C@H](CC[C@@H]4[C@@]5(C)CC[C@H](O)C(C)(C)[C@@H]5CC[C@]43C)[C@@H]12 [betulin] | significantly more toxic to senescent cells than quiescent cells | – | – | – | – | – | – | – | – | – | – | – | – | – | –
2 | COc1cc(O)c(CC=C(C)C)c(O)c1C(=O)/C=C/c1ccc(O)cc1 [xanthohumol] | – | reduced expression | reduced expression | reduced expression | reduced expression | reduced expression | reduced expression | reduced expression | reduced expression | reduced expression | reduced expression | reduced expression | reduced expression | reduced | lowers markers of senescence
